From US11560371B2, “Cereblon binding compounds, compositions thereof, and methods of treatment therewith” (Celgene Corporation, priority 2020, dated 2023)
Structures can show the parent of a compound that is named as a salt.

Target: T1, AR (Homo sapiens, UniProt P10275)
T1 construct: endogenous in cells; host or cells: VCaP cells
T1 sequence (P10275 1-920): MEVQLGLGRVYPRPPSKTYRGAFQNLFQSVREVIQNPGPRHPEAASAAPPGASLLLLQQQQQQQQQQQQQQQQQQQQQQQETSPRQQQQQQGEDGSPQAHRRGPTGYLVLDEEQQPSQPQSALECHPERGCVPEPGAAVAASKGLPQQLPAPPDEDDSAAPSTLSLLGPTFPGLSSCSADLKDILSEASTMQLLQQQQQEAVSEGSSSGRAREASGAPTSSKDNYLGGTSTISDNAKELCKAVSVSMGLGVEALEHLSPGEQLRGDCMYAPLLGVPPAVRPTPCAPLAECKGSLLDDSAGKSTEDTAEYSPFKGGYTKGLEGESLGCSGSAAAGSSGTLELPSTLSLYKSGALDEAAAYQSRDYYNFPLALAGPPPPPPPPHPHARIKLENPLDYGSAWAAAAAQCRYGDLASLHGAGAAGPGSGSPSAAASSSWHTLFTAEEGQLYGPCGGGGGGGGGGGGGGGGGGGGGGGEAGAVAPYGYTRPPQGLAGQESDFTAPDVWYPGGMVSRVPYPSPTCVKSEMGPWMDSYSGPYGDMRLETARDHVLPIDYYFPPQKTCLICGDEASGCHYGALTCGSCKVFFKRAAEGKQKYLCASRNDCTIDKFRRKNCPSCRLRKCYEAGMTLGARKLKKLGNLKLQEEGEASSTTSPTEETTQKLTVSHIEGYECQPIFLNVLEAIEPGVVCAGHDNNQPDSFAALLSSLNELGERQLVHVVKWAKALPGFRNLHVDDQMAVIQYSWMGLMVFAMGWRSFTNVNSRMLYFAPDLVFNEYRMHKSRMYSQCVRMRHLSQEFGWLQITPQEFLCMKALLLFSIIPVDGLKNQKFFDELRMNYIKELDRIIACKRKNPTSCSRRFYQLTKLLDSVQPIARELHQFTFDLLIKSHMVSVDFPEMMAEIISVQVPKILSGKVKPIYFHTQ
Experiment: VCAP AR Degradation Assay
Type: cell-based
Conditions: VCaP cells, 24 h, AR ELISA; for DC50: concentration of compound when AR level = 50% of DMSO control (50% AR degradation); for Y: lowest measured AR level normalized to DMSO control (AR degradation efficiency)
Procedure: VCAP AR Degradation Assay. Test compounds were pre-dispensed into a Corning CellBind 96-well clear bottom plate (Cat #3300) using an acoustic dispenser to make a 10-point concentration series at 1:3 dilution for each compound. The final top concentration of each compound was 5 μM. DMSO at a final concentration of 0.1% was used as a control. VCaP cells cultured in DMEM with 8% fetal bovine serum (FBS) were seeded at 50K cells per well in a 200 μL volume into the compound plate and incubated at 37° C. in a CO2 incubator for 24 h. The medium was carefully removed from the cells and the plate was placed on ice. […] ice-cold 1× cell lysis buffer from Cell Signaling Technologies (Cat #9803) was added to each well of the cells and the plate was incubated at 4° C. on a shaker for 1 h. Fifteen μL of cell lysate was used for AR ELISA detection using a PathScan Total Sandwich AR ELISA kit (Cell Signaling Technology, Cat #12580). AR levels in compound-treated wells were normalized to that of DMSO control and expressed as percent of control (PoC) (y). A Four Parameter Logistic Model (Sigmoidal Dose-Response Model) was used to determine the compound's DC50, and EC50, using the following equation: y=(A+((B−A)/(1+((C/x)^D)))) • A=YMin (lowest AR level normalized to DMSO control in response to compound treatment, as determined by curve fit) • B=YMax (maximum AR level as determined by curve fit) • C=EC50 • D=Hill Slope • x=compound concentration • EC50=the concentration of compound when y=[…] • DC50=the concentration of the compound when y=50% of DMSO control (50% AR degradation) • y=AR protein level normalized to DMSO control
The lowest measured AR level normalized to DMSO control in response to compound treatment, termed Y value, was used to characterize the compound-mediated AR degradation efficiency.

| Compound | DC50 [nM] | Y | DC50 (hydrochloride) [nM] |
| --- | --- | --- | --- |
| C[C@@H]1CN(CCC[C@H]2CC[C@H](N3C(=S)N(c4cnc(C#N)c(Cl)c4)C(=O)C3(C)C)CC2)C[C@H](C)N1CC(=O)Nc1cccc2c(N3CCC(=O)NC3=O)nn(C)c12 [Cmpd 12, 2-((2R,6S)-4-(3-(trans-4-(3-(5-Chloro-6-cyanopyridin-3-yl)-5,5-dimethyl-4-oxo-2-thioxoimidazolidin-1-yl)cyclohexyl)propyl)-2,6-dimethylpiperazin-1-yl)-N-(3-(2,4-dioxotetrahydropyrimidin-1(2H)-yl)-1-methyl-1H-indazol-7-yl)acetamide hydrochloride] | 2 to 10 | ** (20%<Y≤%) | – |
| C[C@@H]1C[C@@H](CCO[C@H]2CC[C@H](N3C(=S)N(c4ccc(C#N)c(C(F)(F)F)c4)C(=O)C3(C)C)CC2)C[C@H](C)N1CC(=O)Nc1cccc2c(N3CCC(=O)NC3=O)nn(C)c12 [Cmpd 13, 2-((2R,4s,6S)-4-(2-((trans-4-(3-(4-Cyano-3-(trifluoromethyl)phenyl)-5,5-dimethyl-4-oxo-2-thioxoimidazolidin-1-yl)cyclohexyl)oxy)ethyl)-2,6-dimethylpiperidin-1-yl)-N-(3-(2,4-dioxotetrahydropyrimidin-1(2H)-yl)-1-methyl-1H-indazol-7-yl)acetamide hydrochloride] | 2 to 10 | * (0<Y≤20%) | – |
| C[C@@H]1C[C@H](CCO[C@H]2CC[C@H](N3C(=S)N(c4ccc(C#N)c(C(F)(F)F)c4)C(=O)C3(C)C)CC2)C[C@H](C)N1CC(=O)Nc1cccc2c(N3CCC(=O)NC3=O)nn(C)c12 [Cmpd 14, 2-((2R,4r,6S)-4-(2-((trans-4-(3-(4-Cyano-3-(trifluoromethyl)phenyl)-5,5-dimethyl-4-oxo-2-thioxoimidazolidin-1-yl)cyclohexyl)oxy)ethyl)-2,6-dimethylpiperidin-1-yl)-N-(3-(2,4-dioxotetrahydropyrimidin-1(2H)-yl)-1-methyl-1H-indazol-7-yl)acetamide hydrochloride] | 2 to 10 | * (0<Y≤20%) | – |
| C[C@@H]1CN(CCO[C@H]2CC[C@H](N3C(=S)N(c4ccc(C#N)c(C(F)(F)F)c4)C(=O)C3(C)C)CC2)C[C@H](C)N1CCOc1cccc2c(N3CCC(=O)NC3=O)nn(C)c12 [Cmpd 15, 4-(3-(trans-4-(2-((3R,5S)-4-(2-((3-(2,4-Dioxotetrahydropyrimidin-1(2H)-yl)-1-methyl-1H-indazol-7-yl)oxy)ethyl)-3,5-dimethylpiperazin-1-yl)ethoxy)cyclohexyl)-4,4-dimethyl-5-oxo-2-thioxoimidazolidin-1-yl)-2-(trifluoromethyl)benzonitrile hydrochloride] | 100 to 10000 | ** (20%<Y≤%) | – |
| C[C@@H]1CN(CCO[C@H]2CC[C@H](N3C(=S)N(c4ccc(C#N)c(C(F)(F)F)c4)C(=O)C3(C)C)CC2)C[C@H](C)N1CCCOc1cccc2c(N3CCC(=O)NC3=O)nn(C)c12 [Cmpd 16, 4-(3-(trans-4-(2-((3S,5R)-4-(3-((3-(2,4-dioxotetrahydropyrimidin-1(2H)-yl)-1-methyl-1H-indazol-7-yl)oxy)propyl)-3,5-dimethylpiperazin-1-yl)ethoxy)cyclohexyl)-4,4-dimethyl-5-oxo-2-thioxoimidazolidin-1-yl)-2-(trifluoromethyl)benzonitrile hydrochloride] | 100 to 10000 | *** (30%<Y<60%) | – |
| C[C@@H]1CN(CCCC[C@H]2CC[C@H](N3C(=S)N(c4ccc(C#N)c(C(F)(F)F)c4)C(=O)C3(C)C)CC2)C[C@H](C)N1CC(=O)Nc1cccc2c(N3CCC(=O)NC3=O)nn(C)c12 [Cmpd 17, 2-((2R,6S)-4-(4-(trans-4-(3-(4-Cyano-3-(trifluoromethyl)phenyl)-5,5-dimethyl-4-oxo-2-thioxoimidazolidin-1-yl)cyclohexyl)butyl)-2,6-dimethylpiperazin-1-yl)-N-(3-(2,4-dioxotetrahydropyrimidin-1(2H)-yl)-1-methyl-1H-indazol-7-yl)acetamide hydrochloride] | 2 to 10 | ** (20%<Y≤%) | – |
| C[C@@H]1CN(CCO[C@H]2CC[C@H](N3C(=S)N(c4ccc(C#N)c(C(F)(F)F)c4)C(=O)C3(C)C)CC2)C[C@H](C)N1CCNc1cccc2c(N3CCC(=O)NC3=O)nn(C)c12 [Cmpd 18, 4-(3-(trans-4-(2-((3R,5S)-4-(2-((3-(2,4-Dioxotetrahydropyrimidin-1(2H)-yl)-1-methyl-1H-indazol-7-yl)amino)ethyl)-3,5-dimethylpiperazin-1-yl)ethoxy)cyclohexyl)-4,4-dimethyl-5-oxo-2-thioxoimidazolidin-1-yl)-2-(trifluoromethyl)benzonitrile hydrochloride] | – | *** (30%<Y<60%) | 10 to 100 |
| Cn1nc(N2CCC(=O)NC2=O)c2cccc(NC(=O)CN3CCN(CCO[C@H]4CC[C@H](N5C(=S)N(c6ccc(C#N)c(C(F)(F)F)c6)C(=O)C5(C)C)CC4)C[C@@H]3C(F)(F)F)c21 [Cmpd 20, 2-((R)-4-(2-((trans-4-(3-(4-Cyano-3-(trifluoromethyl)phenyl)-5,5-dimethyl-4-oxo-2-thioxoimidazolidin-1-yl)cyclohexyl)oxy)ethyl)-2-(trifluoromethyl)piperazin-1-yl)-N-(3-(2,4-dioxotetrahydropyrimidin-1(2H)-yl)-1-methyl-1H-indazol-7-yl)acetamide hydrochloride] | ≤ 2 | ** (20%<Y≤%) | – |
| C[C@@H]1CN(CCO[C@H]2CC[C@H](N3C(=S)N(c4ccc(C#N)c(S(F)(F)(F)(F)F)c4)C(=O)C3(C)C)CC2)C[C@H](C)N1CC(=O)Nc1cccc2c(N3CCC(=O)NC3=O)nn(C)c12 [Cmpd 21, 2-((2S,6R)-4-(2-((trans-4-(3-(4-Cyano-3-(pentafluoro-λ^6-sulfaneyl)phenyl)-5,5-dimethyl-4-oxo-2-thioxoimidazolidin-1-yl)cyclohexyl)oxy)ethyl)-2,6-dimethylpiperazin-1-yl)-N-(3-(2,4-dioxotetrahydropyrimidin-1(2H)-yl)-1-methyl-1H-indazol-7-yl)acetamide hydrochloride] | 100 to 10000 | *** (30%<Y<60%) | – |
| Cn1nc(N2CCC(=O)NC2=O)c2cccc(NC(=O)CN3CCN(CCC[C@H]4CC[C@H](N5C(=S)N(c6cnc(C#N)c(C(F)(F)F)c6)C(=O)C5(C)C)CC4)C[C@@H]3C(F)(F)F)c21 [Cmpd 22, 2-((R)-4-(3-(trans)-4-(3-(6-cyano-5-(trifluoromethyl)pyridin-3-yl)-5,5-dimethyl-4-oxo-2-thioxoimidazolidin-1-yl)cyclohexyl)propyl)-2-(trifluoromethyl)piperazin-1-yl)-N-(3-(2,4-dioxotetrahydropyrimidin-1(2H)-yl)-1-methyl-1H-indazol-7-yl)acetamide hydrochloride] | 2 to 10 | * (0<Y≤20%) | – |
| Cn1nc(N2CCC(=O)NC2=O)c2cccc(NC(=O)CN3CCN(CCC[C@H]4CC[C@H](N5C(=S)N(c6ccc(C#N)c(C(F)(F)F)c6)C(=O)C5(C)C)CC4)C[C@@H]3C(F)(F)F)c21 [Cmpd 23, 2-((R)-4-(3-(trans-4-(3-(4-cyano-3-(trifluoromethyl)phenyl)-5,5-dimethyl-4-oxo-2-thioxoimidazolidin-1-yl)cyclohexyl)propyl)-2-(trifluoromethyl)piperazin-1-yl)-N-(3-(2,4-dioxotetrahydropyrimidin-1(2H)-yl)-1-methyl-1H-indazol-7-yl)acetamide] | 2 to 10 | ** (20%<Y≤%) | – |
